Test results: US20210228484A1, “VETERINARY THICK GEL COMPOSITION OF HIGH PALATABILITY CONTAINING ANTIOXIDANTS TO DECREASE SARCOPENIA, OSTEOPENIA AND DNA DAMAGE FROM OXIDATIVE STRESS IN DOGS, AND PROCEDURE FOR ITS OBTENTION” (priority 2018, published 2021)

Tested on: oxidative stress
Test: Overall effect of the antioxidant dietary complement on oxidative stress biomarkers in dogs
Assay type: in vivo
Settings: provided alone
Excerpt: The evaluated biomarkers let us assure that the provision of antioxidants, particularly the mixtures of at least two antioxidants selected from Resveratrol. Pterostilbene and Vitamin E, as a dietary complement had the following effects. 1) decrease of oxidative stress, 2) highly significant decrease in the loss of skeletal muscle (CPK), 3) highly significant decrease in the loss of bone mass (ALP), and 4) decrease of 12-15% in the loss of (8(OH)dG) DNA. […] It is also possible to observe that the Vitamin E that was provided alone produced a lesser effect, compared to that of the mixture of two antioxidants that were jointly provided.

Question: With CC(=O)Oc1c(C)c(C)c2c(c1C)CCC(C)(CCCC(C)CCCC(C)CCCC(C)C)O2 (racemic) [Vitamin E, DL-alpha tocopherol acetate] as the compound, how does the “effect on the biomarkers compared to the mixture of two antioxidants” value read?
Answer: lesser effect
